How the values were obtained:
Acetyl-CoA carboxylase 1 = Acetyl-CoA carboxylase 1 (Homo sapiens, UniProt Q13085); experiment: Inhibition of human recombinant ACC1
Acetyl-CoA carboxylase 2 = Acetyl-CoA carboxylase 2 (Homo sapiens, UniProt O00763); experiment: Inhibition of human recombinant ACC2
Chain of Acetyl-CoA carboxylase 2 (O00763 whole entry): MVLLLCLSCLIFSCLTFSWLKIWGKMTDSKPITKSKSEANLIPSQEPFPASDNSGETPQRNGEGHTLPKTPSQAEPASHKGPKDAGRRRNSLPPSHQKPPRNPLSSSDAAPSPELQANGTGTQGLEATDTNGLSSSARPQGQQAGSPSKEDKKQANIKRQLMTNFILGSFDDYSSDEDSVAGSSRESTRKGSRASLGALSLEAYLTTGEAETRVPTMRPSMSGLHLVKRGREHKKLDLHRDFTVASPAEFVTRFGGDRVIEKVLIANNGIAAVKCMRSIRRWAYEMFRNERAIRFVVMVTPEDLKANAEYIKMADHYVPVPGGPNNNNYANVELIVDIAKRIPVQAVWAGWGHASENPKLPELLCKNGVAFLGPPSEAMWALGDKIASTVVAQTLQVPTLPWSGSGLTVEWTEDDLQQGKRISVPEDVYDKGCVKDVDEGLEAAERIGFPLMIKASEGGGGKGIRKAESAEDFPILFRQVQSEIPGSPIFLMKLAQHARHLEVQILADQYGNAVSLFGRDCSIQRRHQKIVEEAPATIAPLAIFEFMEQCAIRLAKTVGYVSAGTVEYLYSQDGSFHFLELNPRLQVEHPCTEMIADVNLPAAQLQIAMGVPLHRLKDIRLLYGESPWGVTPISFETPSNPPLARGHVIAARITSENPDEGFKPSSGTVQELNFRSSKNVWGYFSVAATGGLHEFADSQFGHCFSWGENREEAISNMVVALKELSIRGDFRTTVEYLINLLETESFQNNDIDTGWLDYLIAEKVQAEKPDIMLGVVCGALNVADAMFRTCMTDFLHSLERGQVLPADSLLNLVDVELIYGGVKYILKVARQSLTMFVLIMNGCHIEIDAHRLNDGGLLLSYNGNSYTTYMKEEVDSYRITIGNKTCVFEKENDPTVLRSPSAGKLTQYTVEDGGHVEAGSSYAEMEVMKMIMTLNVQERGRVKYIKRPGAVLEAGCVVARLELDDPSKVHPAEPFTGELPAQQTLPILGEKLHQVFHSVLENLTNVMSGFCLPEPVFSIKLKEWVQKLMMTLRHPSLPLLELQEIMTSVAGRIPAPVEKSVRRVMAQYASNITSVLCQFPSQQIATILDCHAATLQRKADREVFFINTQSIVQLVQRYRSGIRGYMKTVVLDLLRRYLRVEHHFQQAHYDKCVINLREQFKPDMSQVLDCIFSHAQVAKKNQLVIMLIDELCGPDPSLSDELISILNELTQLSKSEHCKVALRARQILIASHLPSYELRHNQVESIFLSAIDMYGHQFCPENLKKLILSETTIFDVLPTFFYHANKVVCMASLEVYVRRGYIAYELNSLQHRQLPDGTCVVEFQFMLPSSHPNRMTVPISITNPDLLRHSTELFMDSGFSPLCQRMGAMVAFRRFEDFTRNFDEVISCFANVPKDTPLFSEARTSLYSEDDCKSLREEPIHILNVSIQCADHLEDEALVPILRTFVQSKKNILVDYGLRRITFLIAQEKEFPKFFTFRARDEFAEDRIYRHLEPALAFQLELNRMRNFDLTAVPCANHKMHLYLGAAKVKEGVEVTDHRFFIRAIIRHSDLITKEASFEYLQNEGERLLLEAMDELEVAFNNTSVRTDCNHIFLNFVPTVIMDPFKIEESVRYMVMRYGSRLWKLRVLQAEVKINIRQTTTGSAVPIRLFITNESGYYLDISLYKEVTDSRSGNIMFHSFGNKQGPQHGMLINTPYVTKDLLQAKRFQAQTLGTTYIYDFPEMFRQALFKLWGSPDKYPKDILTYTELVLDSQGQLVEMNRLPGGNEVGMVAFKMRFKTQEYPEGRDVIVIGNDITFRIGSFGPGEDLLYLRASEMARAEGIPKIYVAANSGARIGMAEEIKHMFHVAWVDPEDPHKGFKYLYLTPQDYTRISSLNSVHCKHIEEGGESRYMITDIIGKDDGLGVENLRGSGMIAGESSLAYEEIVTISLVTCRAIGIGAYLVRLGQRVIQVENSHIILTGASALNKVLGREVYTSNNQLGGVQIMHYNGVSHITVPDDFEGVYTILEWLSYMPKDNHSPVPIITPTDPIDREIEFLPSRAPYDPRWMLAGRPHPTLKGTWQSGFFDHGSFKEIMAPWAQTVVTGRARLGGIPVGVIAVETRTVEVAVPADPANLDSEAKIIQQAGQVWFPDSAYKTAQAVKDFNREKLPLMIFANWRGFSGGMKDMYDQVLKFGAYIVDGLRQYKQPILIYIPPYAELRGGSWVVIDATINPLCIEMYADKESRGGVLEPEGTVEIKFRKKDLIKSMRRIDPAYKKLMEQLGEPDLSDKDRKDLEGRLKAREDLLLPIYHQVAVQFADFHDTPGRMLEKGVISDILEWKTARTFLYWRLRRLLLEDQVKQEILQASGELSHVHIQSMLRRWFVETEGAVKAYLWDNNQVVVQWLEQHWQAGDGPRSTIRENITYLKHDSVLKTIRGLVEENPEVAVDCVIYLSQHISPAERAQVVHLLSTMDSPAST

Row | Compound | IC50 (Acetyl-CoA carboxylase 1) | IC50 (Acetyl-CoA carboxylase 2)
1 | CC(C)n1ncc2c1C(=O)CC1(CCN(C(=O)c3ccc4[nH]c(C(N)=O)cc4c3)CC1)C2 | 11 nM | 2.9 nM
2 | COc1ccc2ncc(C(=O)N3CCC4(CC3)CC(=O)c3c(cnn3C(C)C)C4)cc2c1 | 5 nM | 2.1 nM
3 | CNc1ccc2ccc(C(=O)N3CCC4(CC3)CC(=O)c3nn(C(C)(C)C)cc3C4)cc2n1 | 2.2 nM | 1.3 nM
4 | CC(C)n1ncc2c1C(=O)CC1(CCN(C(=O)c3ccc4ccc(N)nc4c3)CC1)C2 | 12 nM | 10 nM
